Earlier results, collected in US11992485B2, “Analgesic formulations and methods for reduced postoperative nausea and vomiting and enhanced postoperative pain relief” (Hutchison Health, LLC, priority 2013, dated 2024).
Counter-ions that a name gives are not always drawn.

Key:
[1] = tested on: Lumbar Laminectomy patients
[2] = Table 2: 12 hr., Rahmanian et al.

- % of patients with NO PONV (50 patients; Table 1: first 24-48 hours post-surgery, Patel et al.): 72%
- patients who developed PONV (50 patients; intrathecal, Patel): 28%
Compound: CCCCN1CCCCC1C(=O)Nc1c(C)cccc1C (stereo not drawn) [Bupivacaine Hydrochloride]
- decrease of postoperative surgical pain compared with 30 ml Normal Saline ([1]; 30 mL of 0.25%, infiltrative field block at surgical closure, Rahmanian): no more effective than 30 ml Normal Saline
- Patients with MILD PAIN [1, 2]: 0%
- Patients with NO PAIN [1, 2]: 0%
- VAS scores at rest compared with control Normal Saline group ([1]; subjective linear VAS, Rahmanian): higher
